Assay results from patent US5202456A, “Compounds for inhibition of protein methylation” (The President and Fellows of Harvard College, priority 1991, dated 1993).
“Also recorded” adds a separate entry of the source. Read-outs that look alike come from different tables or passages of the source. * marks the point of attachment. Farnesyl = CC(C)=CCC/C(C)=C/CC/C(C)=C/C*

Tests used:
[1] = tested on: demethylase activity in ROS membranes; experiment: Methylation exchange/demethylation of AFC methyl ester with ROS membranes; assay type: biochemical, bovine
Protocol: (§1) Frozen bovine retinas (Wanda Lawson Co., Lincoln, Nebr.) were used to prepare ROS membranes depleted of peripheral proteins using a modification of the procedure of Wessling-Resnick et al. (J. Biol. Chem. 262:3697, 1987). Briefly, ROS membranes were washed with low ionic strength buffer and 100μM GTP, resuspended in 50 mM Hepes-Na (pH 7.4), 100 mM NaCl, 5 mM MgCl2, 0.1 mM phenylmethylsulfonyl fluoride, 0.1 mM dithiothreitol (buffer A) and stored in small aliquots at -80° C. until used. Transducin was isolated by disrupting ROS membranes by passing the membranes through a narrow needle and washing the disrupted membranes in a series of centrifugation steps as described by Wessling-Resnick et al. (J. Biol. Chem. 262:3697, 1987). Finally transducin was eluted from the membranes with 100μM GTP. The transducin-enriched supernatant was concentrated using Centriprep (Amicon).
(§2) For initial studies, the reaction mixture contained 20 μCi of S-adenosyl-[methyl-^3 H] methionine ([^3 H]SAM) (2.34 μM, Amersham) and an aliquot of ROS (120μg of total protein) or of washed ROS membranes (80μg of total protein) in 100 μl of buffer A. Purified transducin was added to this mixture to a concentration of 5 μM. AFC, N-acetylcysteine, or AFC methylester was added in 2 μl of dimethyl sulfoxide to give a final concentration of 20 μM, and the reaction was carried out at 37° C.
To study the demethylation process directly, AFC[^3 H]methyl ester was incubated with ROS membranes in the presence of methylation inhibitors. […] Under similar conditions, demethylation of Tγ and the putative small G protein (23-29 kDa) was also observed.

HL-60 cell extracts = experiment: Turnover of AFC methyl ester by HL-60 cell extracts; assay type: biochemical; details: in words
[2] = biological target: T1, ROS methyltransferase (bovine retinal rod outer segment S-adenosyl-L-methionine-dependent methyltransferase) (Bos taurus, UniProt A0AAA9SD88); experiment: ROS methyltransferase assay: compounds as substrates (Km) or inhibitors (Ki) of AFC methylation; assay type: biochemical
T1 construct: utilizing ROS membranes as the source of methyltransferase enzyme; tissue Wanda Lawson Co., Lincoln, Nebr; (frozen bovine retinas); host or cells: bovine retinal rod outer segment (ROS) membranes
T1 sequence (A0AAA9SD88 1-284): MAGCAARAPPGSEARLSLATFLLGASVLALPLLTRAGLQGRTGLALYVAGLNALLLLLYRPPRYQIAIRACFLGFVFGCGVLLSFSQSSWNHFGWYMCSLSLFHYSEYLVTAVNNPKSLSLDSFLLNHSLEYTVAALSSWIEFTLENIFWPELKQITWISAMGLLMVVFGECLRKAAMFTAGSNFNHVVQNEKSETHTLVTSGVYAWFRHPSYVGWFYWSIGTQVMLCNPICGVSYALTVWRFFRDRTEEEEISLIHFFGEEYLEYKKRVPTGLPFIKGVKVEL
Protocol: Standard assays may be used to determine Km for substrates and Ki for inhibitors. […] The values of Ki and Km are calculated from kinetic assays by conventional means (Fersht, Enzyme Structure and Mechanism, W. H. Freeman and Co., New York, 1984). Examples are provided below to illustrate suitable assays, and are not intended to limit the invention.
One suitable assay of methylation functions uses bovine retinal rod outer segment (ROS) methyltransferase and a natural substrate, transducin. […] Another suitable assay uses N-acetyl-S-farnesylcysteine as a substrate for ROS methyltransferase.
The bovine retinal transducin γ subunit has a carboxyl-terminal --CAAX motif and undergoes a farnesylation reaction similar to that observed on ras (Lai et al., Proc. Natl. Acad. Sci. USA 87:7673, 1990; Fukada et al., Nature 346:658, 1990).
as §1, §2
The above-described methyltransferase assay was used to analyze the analogs described above.

transducin γ subunit = experiment: In vitro carboxyl-methylation of transducin γ subunit in ROS; assay type: biochemical, bovine; details: 10 μM; [3H]SAM 2.3 μM; densitometry of SDS gels
From the text: We have identified an S-adenosyl-L-methionine-dependent methyltransferase activity in bovine retinal rod outer segments (ROS) which methylates the free carboxyl group of the farnesylated cysteine of bovine retinal transducin γ subunit. The bovine retinal transducin γ subunit has a carboxyl-terminal --CAAX motif and undergoes a farnesylation reaction similar to that observed on ras (Lai et al., Proc. Natl. Acad. Sci. USA 87:7673, 1990; Fukada et al., Nature 346:658, 1990). Bovine retinal rod outer segment S-adenosyl-L-methionine-dependent methyltransferase (ROS methyltransferase) provides a means by which to identify compounds capable of interfering with the methylation of proteins having a carboxyl-terminal --CAAX motif.
Frozen bovine retinas (Wanda Lawson Co., Lincoln, Nebr.) were used to prepare ROS membranes depleted of peripheral proteins using a modification of the procedure of Wessling-Resnick et al. (J. Biol. Chem. 262:3697, 1987). Briefly, ROS membranes were washed with low ionic strength buffer and 100μM GTP, resuspended in 50 mM Hepes-Na (pH 7.4), 100 mM NaCl, 5 mM MgCl2, 0.1 mM phenylmethylsulfonyl fluoride, 0.1 mM dithiothreitol (buffer A) and stored in small aliquots at -80° C. until used. […]

23 kDa ras protein = experiment: [3H]SAM methylation of 23 kDa ras protein in disrupted HL-60 cells; assay type: biochemical; details: 50 μM
Protocol: In an in vitro labelling reaction similar to that described above for ROS membranes, the 23 kDa ras protein was the principle protein methylated by [^3 H]SAM labelling of disrupted HL-60 cells. In this assay 50 μM FTA inhibited methylation of the 23 kDa protein by 61%.

[3] = tested on: methyltransferase activity in HL-60 cells; experiment: Methylation of AFC by activity present in HL-60 cell membrane; assay type: biochemical; details: 10-fold excess of FTA
HL-60 cells = experiment: Inhibition of HL-60 cell proliferation (trypan blue dye exclusion count); assay type: cell-based; details: FIG. 2; in words
Protocol: FTA, FTP, AFHC and AFC were tested for their ability to inhibit cell growth as follows.
HL-60 cells (ATCC CCL 240, American Type Culture Collection, Rockville, Md.) which harbor an activated ras gene were grown in RPMI medium (Gibco/BRL, Bethesda, Md.) supplemented with 10-15% fetal calf serum, L-glutamine, penicillin and streptomycin. These cells were treated with various concentrations of FTA, FTP, AFHC, or AFC dissolved in dimethyl sulfoxide (DMSO) or with DMSO only (In all experiments the final DMSO concentration was 1% or less). Treated ans untreated cells were incubated under standard culture conditions for several days. Cells were counted manually at 24 hour intervals using a trypan blue dye exclusion assay which counts only live, intact cells.

[4] = tested on: methyltransferase present in HL-60 cell extracts; experiment: Methylation of transducin γ subunit by HL-60 cell extract methyltransferase; assay type: biochemical; details: in words
[5] = [3H]SAM and washed ROS membranes

COC(=O)[C@H](CSC/C=C(\C)CC/C=C(\C)CCC=C(C)C)NC(C)=O [AFC methyl ester]
hydrolysis of methyl ester by demethylase activity ([1]; ROS membranes, in presence of methylation inhibitors): rapidly hydrolyzed
duration of linear incorporation of radioactivity [1, 5]: at least 2 hr
incorporation of radioactivity into AFC methyl ester [1, 5]: linear, time-dependent incorporation of radioactivity
turnover by HL-60 cell extracts (HL-60 cell extracts): can be turned over

CC(C)=CCC/C(C)=C/CC/C(C)=C/CSCC(=O)O [FTA, 2-farnesylthioacetic acid]
Ki ([2]; Table 1, conventional inhibitors, read-out: Ki): 4.6 µM
Ki ([2]; calculated, read-out: Ki for inhibition of AFC methylation): 4.6 µM
competitive inhibition of AFC methylation ([2]; in words): potent competitive inhibitors
substrate activity for ROS methyltransferase ([2]; in words): substrate activity was lost; also recorded: not substrates
inhibition of in vitro carboxyl-methylation of transducin γ subunit (transducin γ subunit): 70%
inhibition of methylation of the 23 kDa protein (23 kDa ras protein): 61%
inhibition of AFC methylation by HL-60 membrane activity [3]: 90%
inhibition of proliferation of HL-60 cells (HL-60 cells): can inhibit proliferation

B1: γ subunit of transducin: γ subunit (Tγ) of retinal transducin, farnesylated at cysteine (protein, UniProt P02698 2-71, looked up)
Guanine nucleotide-binding …: PVINIEDLTEKDKLKMEVDQLKKEVTLERMLVSKCCEEFRDYVEERSGEDPLVKGIPEDKNPFKELKGGC(Farnesyl)
modifications: ends and bridges not checked
notes: γ subunit (Tγ) of retinal transducin, farnesylated at cysteine
methylation by methyltransferase in HL-60 cell extracts [4]: can be methylated
